Measurements: patent US5116846A, “N-aralkyl piperidine derivatives as psychotropic drugs” (priority 1990, dated 1992)

Key:
[1] = (+)-N-Allylnormetazocine-Induced Turning Behavior in Rats; format: in vivo, rat (male Sprague-Dawley); conditions: test drug p.o. or s.c. 20 minutes before testing; (+)-N-allylnormetazocine 4.0 mg/kg s.c.; class symbols not defined
Procedure: (+)-N-Allylnormetazocine-Induced Turning Behavior in Rats
Male Sprague-Dawley rats (CDlCR, Charles River), weighing 190-290 g, were used for surgery. In order to spare […] neurons, rats were injected with 25 mg/kg imipramine i.p. 30 minutes before surgery. The rats were anesthetized with a 1:1.2 ratio mixture of Xylazine:Ketamine given 0.1 mL/100 g body weight i.m. A Ringers-Wydaze (100:0.01) solution was given to prevent dehydration. Dopamine was depleted in the right striatum by injecting the neurotoxin 6-hydroxydopamine (6-OHDA) into the substantia nigra of the right cerebral hemisphere. Five mg of 6-OHDA was dissolved in 5 mL of a 0.04% ascorbic acid solution which had been deoxygenated with nitrogen. Five μL of the 6-OHDA solution was injected into the substantia nigra through a 26 gauge needle over a five minute period. […]
Rotation rate and direction were determined with Coulbourn Instruments Rotometry Monitors. Clockwise and counter clockwise rotations were recorded at 30 and 60 minute intervals. […]
The data were analyzed with an analysis of variance statistical test and individual comparisons of each dose of test drug to control were made with Dunnett's multiple range test. The ED50 was calculated with a Litchfield and Wilcoxon test using percent of control values. […]

[2] = Isolation-Induced Aggression in Mice; format: in vivo, mouse (male Balb/c)
Procedure: Male Balb/c mice (Charles River) were used. […] Isolated mice failing to consistently attack an intruder were eliminated from the colony.
Drug testing was carried out by treating the isolated mice with test drugs or standards. Fifteen minutes after dosing with test drugs by the oral route, one isolated mouse was removed from its home cage and placed in the home cage of another isolate. Scoring was a yes or no response for each pair. A maximum of 3 minutes was allowed for an attack and the pair was separated immediately upon an attack. Selection of home cage and intruder mice was randomized for each test. Mice were treated and tested twice a week with at least a 2 day washout period between treatments.

[3] = system: sigma receptor; conditions: Tam, Eur. Pharmacol, 109:33-41 (1985); cited from earlier work

SMILES	Inhibition of (+)-N-Allylnormetazocine Induced Turning [1]	Inhibition of Isolation-induced Aggression ([2]; oral, fifteen minutes after dosing, class symbols not defined)	Inhibition of Isolation-induced Aggression ([2]; po)	affinity for the sigma receptor [3]
O=C(CCCN1CCC(O)(c2ccc(Cl)cc2)CC1)c1ccc(F)cc1 [Haloperidol, haloperidol]	potently antagonized	potent activities in inhibiting the isolation-induced aggressive behavior	+++	–
c1ccc(C2(N3CCCCC3)CCCCC2)cc1 [PCP, phencyclidine]	–	–	–	significant affinity for the sigma receptor
